Paper PMC12298648, “An Evaluation of the Cytotoxicity and Safety Profile of Usnic Acid for a Broad Panel of Human Cancers and Normal Cells with Respect to Its Enantiospecificity” (Molecules, 2025)
In brackets after ≈: the same amount, converted by molar mass. Where two headings read alike, the source gives them in different places.

Columns and labels:
LNCaP = experiment: MTT viability assay, LNCaP prostate cancer cells; format: cell-based, human; conditions: for Cell viability: 24 h; for IC50: Homo sapiens
Excerpt: (§1) Cell lines of different origins were used in the study and grouped as follows: prostate panel (human prostate carcinomas: DU145, derived from metastatic site: brain; grade IV PC3, derived from metastatic site: bone; LNCaP, derived from the metastatic site: lymph node; prostate epithelial, PNT2), colon panel (colorectal adenocarcinomas: HT29, originating from a primary tumor; Duke’s type C DLD-1, with the potential to lymph node metastasis; highly metastatic HCT116; colon epithelial cells CCD 841 CoN), thyroid panel (follicular thyroid carcinoma FTC133, anaplastic thyroid carcinoma 8505C, papillary thyroid carcinoma TPC-1, normal thyroid follicular epithelial Nthy-ori 3–1), breast panel (ER-positive breast adenocarcinoma MCF7, ER-negative breast adenocarcinoma MDA-MB-231, breast epithelial MCF10A), brain panel (neuroblastoma SH-SY5Y, glioblastoma U-87 MG, murine astrocytes C8D1A). All cell lines were purchased from Merck (Darmstadt, Germany).
(§2) Cells were grown under standard conditions (37 °C, 5% CO2) and culture media (DMEM/F12 for PNT2, PC3, FTC133, 8505 C, MDA-MB-231, TPC-1; DMEM Low Glucose for DU145; DMEM High Glucose for HCT116, DLD-1, SH-SY5Y, U87MG, C8D1A; MEM with NEAA for MCF7; MEM for CCD 841 CoN; McCoy’s for HT29; RPMI1640 with sodium pyruvate for LNCaP; DMEM/F12 with 20 ng/mL epidermal growth factor (EGF), 10 μg/mL insulin, 0.5 μg/mL hydrocortisone, 100 ng/mL cholera toxin) for MCF10A), supplemented with 10% fetal bovine serum (FBS) or 5% donor horse serum for MCF10A, and 1% antibiotics solution (10,000 U penicillin and 10 mg streptomycin/mL). The tested substances were prepared as 10 mg/mL stock solutions in DMSO and further diluted in the culture media to the working concentrations. Cells were treated with UA enantiomers at the concentration range of 0–50 µg/mL. The influence of DMSO on cell viability was also examined, with the final concentration […], and no toxic effect was noted.
(§3) The cells were seeded onto 96-well plates at a density of 1.5 × 10^4 cells/well. After 24 h UA enantiomers were added. Cell viability was determined after 24, 48, and 72 h by the MTT assay, as described previously. Doxorubicin was used as a reference cytostatic drug. All analyses were performed in triplicate; cell viability was expressed as % of control, untreated cells (mean ± SD), and IC50 values (concentration at which cell viability is inhibited by 50%), if possible.

HT29 cells = conditions: HT29, 48 h, cited from earlier work
PC3 = experiment: MTT viability assay, PC3 prostate cancer cells; format: cell-based, human; conditions: for IC50: Homo sapiens, PC-3; for Cell viability: PC3, 24 h
Excerpt: as §1, §2, §3
(§4) The selectivity index (SI) was calculated, if possible, by dividing the IC50 value obtained for non-cancerous cells line by the IC50 values obtained for appropriate cancer cell line, as described previously. […] The values above 3 indicate good selectivity.

MCF10A = experiment: MTT viability assay, normal breast epithelial cells; format: cell-based, human; conditions: for IC50: Homo sapiens, MCF-10A, MCF10A normal cells; for Cell viability: MCF10A, 24 h
Excerpt: as §1, §2, §3

U87MG = experiment: MTT viability assay, glioblastoma U87MG cells; format: cell-based, human; conditions: 24 h
Excerpt: as §1, §2, §3

HT29 = experiment: MTT viability assay, HT29 colon cancer cells; format: cell-based, human; conditions: for Cell viability: HT29, 24 h; for IC50: Homo sapiens, HT-29
Excerpt: as §1, §2, §3

SH-SY5Y = experiment: MTT viability assay, neuroblastoma SH-SY5Y cells; format: cell-based, human; conditions: SHSY5Y, 24 h
Excerpt: as §1, §2, §3

HCT116 = experiment: MTT viability assay, HCT116 colon cancer cells; format: cell-based, human; conditions: for Cell viability: HCT116, 24 h; for IC50: Homo sapiens, HCT-116
Excerpt: as §1, §2, §3

C8D1A = experiment: MTT viability assay, normal astrocytes C8D1A; format: cell-based, murine; conditions: C8D1A, 24 h
Excerpt: as §1, §2, §3

MDA-MB-231 = experiment: MTT viability assay, MDA-MB-231 breast cancer cells; format: cell-based, human; conditions: for IC50: Homo sapiens; for Cell viability: MDA-MB-231, 24 h
Excerpt: as §1, §2, §3, §4

For `CC(=O)C1=C(O)C=C2Oc3c(C(C)=O)c(O)c(C)c(O)c3[C@]2(C)C1=O` [UA(−), (−)-usnic acid], the Cell viability (LNCaP; 2.5 µg/mL) was 100.45 % of control, the Cell viability (LNCaP; 5 µg/mL) was 98.18 % of control and the Cell viability (LNCaP; 10 µg/mL) was 88.48 % of control. For the same compound, the Cell viability (LNCaP; 20 µg/mL) was 85.30 % of control, the Cell viability (LNCaP; 30 µg/mL) was 81.97 % of control and the Cell viability (LNCaP; 40 µg/mL) was 79.09 % of control. The Cell viability (LNCaP; 50 µg/mL) was 89.39 % of control, the IC50 (LNCaP; 48 h) was greater than 50 µg/mL and the IC50 (LNCaP; 72 h) was greater than 50 µg/mL. For the same compound, the IC50 (HT29 cells; recalculated from µM by the authors) was 18.9 µg/mL, the IC50 (HT29 cells; read-out: IC50) was 55 µM and the IC50 (PC3; PC3, 48 h) was 37.8 µg/mL (≈ 110 µM). For the same compound, the IC50 (PC3; PC3, 72 h) was 34.8 µg/mL (≈ 101 µM), the “selectivity index (SI)” value (PC3; IC50 PNT2 / IC50 PC3, 48 h) was 0.93 and the “selectivity index (SI)” value (PC3; IC50 PNT2 / IC50 PC3, 72 h) was 0.79. For the same compound, the Cell viability (PC3; 2.5 µg/mL) was 102.94 % of control, the Cell viability (PC3; 5 µg/mL) was 94.68 % of control and the Cell viability (PC3; 10 µg/mL) was 91.59 % of control. For the same compound, the Cell viability (PC3; 20 µg/mL) was 89.10 % of control, the Cell viability (PC3; 30 µg/mL) was 76.52 % of control and the Cell viability (PC3; 40 µg/mL) was 69.15 % of control. For the same compound, the Cell viability (PC3; 50 µg/mL) was 68.91 % of control, the IC50 (MCF10A; 48 h) was greater than 50 µg/mL and the IC50 (MCF10A; 72 h) was greater than 50 µg/mL. The Cell viability (MCF10A; 2.5 µg/mL) was 102.83 % of control, the Cell viability (MCF10A; 5 µg/mL) was 100.30 % of control and the Cell viability (MCF10A; 10 µg/mL) was 101.52 % of control. The Cell viability (MCF10A; 20 µg/mL) was 98.59 % of control, the Cell viability (MCF10A; 30 µg/mL) was 100.10 % of control and the Cell viability (MCF10A; 40 µg/mL) was 103.54 % of control. For the same compound, the Cell viability (MCF10A; 50 µg/mL) was 99.39 % of control, the Cell viability (U87MG; 2.5 µg/mL) was 102.34 % of control and the Cell viability (U87MG; 5 µg/mL) was 102.19 % of control. The Cell viability (U87MG; 10 µg/mL) was 101.69 % of control, the Cell viability (U87MG; 20 µg/mL) was 101.59 % of control and the Cell viability (U87MG; 30 µg/mL) was 111.54 % of control. The Cell viability (U87MG; 40 µg/mL) was 106.02 % of control, the Cell viability (U87MG; 50 µg/mL) was 98.56 % of control and the Cell viability (HT29; 2.5 µg/mL) was 102.45 % of control. For the same compound, the Cell viability (HT29; 5 µg/mL) was 90.48 % of control, the Cell viability (HT29; 10 µg/mL) was 84.03 % of control and the Cell viability (HT29; 20 µg/mL) was 79.62 % of control. The Cell viability (HT29; 30 µg/mL) was 74.37 % of control, the Cell viability (HT29; 40 µg/mL) was 72.48 % of control and the Cell viability (HT29; 50 µg/mL) was 73.95 % of control. The IC50 (HT29; HT29, 48 h) was greater than 50 µg/mL, the IC50 (HT29; HT29, 72 h) was 32.7 µg/mL (≈ 95 µM) and the Cell viability (SH-SY5Y; 2.5 µg/mL) was 96.79 % of control. The Cell viability (SH-SY5Y; 5 µg/mL) was 99.17 % of control, the Cell viability (SH-SY5Y; 10 µg/mL) was 98.10 % of control and the Cell viability (SH-SY5Y; 20 µg/mL) was 96.67 % of control. For the same compound, the Cell viability (SH-SY5Y; 30 µg/mL) was 92.62 % of control, the Cell viability (SH-SY5Y; 40 µg/mL) was 98.57 % of control and the Cell viability (SH-SY5Y; 50 µg/mL) was 99.40 % of control. For the same compound, the Cell viability (HCT116; 2.5 µg/mL) was 112.65 % of control, the Cell viability (HCT116; 5 µg/mL) was 108.16 % of control and the Cell viability (HCT116; 10 µg/mL) was 96.26 % of control. The Cell viability (HCT116; 20 µg/mL) was 84.97 % of control, the Cell viability (HCT116; 30 µg/mL) was 72.86 % of control and the Cell viability (HCT116; 40 µg/mL) was 71.90 % of control. For the same compound, the Cell viability (HCT116; 50 µg/mL) was 73.33 % of control, the IC50 (HCT116; HCT116, 48 h) was 26.2 µg/mL (≈ 76.1 µM) and the IC50 (HCT116; HCT116, 72 h) was 10.7 µg/mL (≈ 31.1 µM). For the same compound, the Cell viability (C8D1A; 2.5 µg/mL) was 100.83 % of control, the Cell viability (C8D1A; 5 µg/mL) was 99.17 % of control and the Cell viability (C8D1A; 10 µg/mL) was 95.67 % of control. The Cell viability (C8D1A; 20 µg/mL) was 96.00 % of control, the Cell viability (C8D1A; 30 µg/mL) was 88.42 % of control and the Cell viability (C8D1A; 40 µg/mL) was 90.58 % of control. For the same compound, the Cell viability (C8D1A; 50 µg/mL) was 104.75 % of control, the IC50 (MDA-MB-231; MDA-MB-231, 48 h) was 41.4 µg/mL (≈ 120 µM) and the IC50 (MDA-MB-231; MDA-MB-231, 72 h) was 20.2 µg/mL (≈ 58.7 µM). For the same compound, the Cell viability (MDA-MB-231; 2.5 µg/mL) was 96.79 % of control, the Cell viability (MDA-MB-231; 5 µg/mL) was 92.06 % of control and the Cell viability (MDA-MB-231; 10 µg/mL) was 88.24 % of control. For the same compound, the Cell viability (MDA-MB-231; 20 µg/mL) was 85.58 % of control, the Cell viability (MDA-MB-231; 30 µg/mL) was 74.48 % of control and the Cell viability (MDA-MB-231; 40 µg/mL) was 68.12 % of control. The Cell viability (MDA-MB-231; 50 µg/mL) was 70.55 % of control.
